20 molecules from patent US9669034B2, “4-aryl-N-phenyl-1,3,5-triazin-2-amines containing a sulfoximine group” (BAYER INTELLECTUAL PROPERTY GMBH, priority 2011, dated 2017) can be followed below.

The subject of assay [1] is HeLa human cervical tumour cells. In words: Proliferation assay (crystal violet), HeLa. Format: cell-based. The conditions noted are these: Method 3, read-out: Inhibition of HeLa cell proliferation, IC50. As for the experimental part:
Cultivated tumour cells (NCI-H460, human non-small cell lung carcinoma cells, ATCC HTB-177; DU145, hormone-independent human prostate carcinoma cells, ATCC HTB-81; HeLa-MaTu, human cervical carcinoma cells, EPO-GmbH, Berlin; HeLa-MaTu-ADR, multidrug-resistant human cervical carcinoma cells, EPO-GmbH, Berlin; HeLa human cervical tumour cells, ATCC CCL-2; Caco-2 human colorectal carcinoma, ATCC HTB-37; B16F10 mouse melanoma cells, ATCC CRL-6475) were plated at a density of 5000 cells/well (DU145, HeLa-MaTu-ADR), 3000 cells/well (NCI-H460, HeLa-MaTu, HeLa), 1500 cells/well (Caco-2), or 1000 cells/well (B16 F10) in a 96-well multititer plate in 200 μL of their respective growth medium supplemented 10% fetal calf serum. After 24 hours, the cells of one plate (zero-point plate) were stained with crystal violet (see below), while the medium of the other plates was replaced by fresh culture medium (200 μL), to which the test substances were added in various concentrations (0 M, as well as in the range of […]; the final concentration of the solvent dimethylsulfoxide was 0.5%). The cells were incubated for 4 days in the presence of test substances. Cell proliferation was determined by staining the cells with crystal violet: the cells were fixed by adding 20 μL/measuring point of an 11% glutaric aldehyde solution for 15 minutes at room temperature. After three washing cycles of the fixed cells with water, the plates were dried at room temperature. The cells were stained by adding 100 μL/measuring point of a 0.1% crystal violet solution (pH 3.0). After three washing cycles of the stained cells with water, the plates were dried at room temperature. The dye was dissolved by adding 100 μL/measuring point of a 10% acetic acid solution. The absorbance was determined by photometry at a wavelength of 595 nm. The change of cell number, in percent, was calculated by normalization of the measured values to the absorbance values of the zero-point plate (=0%) and the absorbance of the untreated (0 M) cells (=100%). The IC50 values were determined by means of a 4 parameter fit.

Another assay addresses CDK9/CycT1 (Homo sapiens (Human), UniProt P50750). In words: CDK9/CycT1 kinase assay (TR-FRET). It is filed as biochemical. The following applies: Method 1. From the text:
1. CDK9/CycT1 Kinase Assay:
CDK9/CycT1—inhibitory activity of compounds of the present invention was quantified employing the CDK9/CycT1 TR-FRET assay as described in the following paragraphs:
Recombinant full-length His-tagged human CDK9 and CycT1, expressed in insect cells and purified by Ni-NTA affinity chromatography, were purchased from Invitrogen (Cat. No PV4131). As substrate for the kinase reaction biotinylated peptide biotin-Ttds-[…]

Another assay addresses CDK2/CycE (Homo sapiens (Human), UniProt P24941). In words: CDK2/CycE kinase assay (TR-FRET). Format: biochemical. The following applies: Method 2. An excerpt: 2. CDK2/CycE Kinase Assay:
CDK2/CycE—inhibitory activity of compounds of the present invention was quantified employing the CDK2/CycE TR-FRET assay as described in the following paragraphs:
Recombinant fusion proteins of GST and human CDK2 and of GST and human CycE, expressed in insect cells (Sf9) and purified by Glutathion-Sepharose affinity chromatography, were purchased from ProQinase GmbH (Freiburg, Germany). As substrate for the kinase reaction biotinylated peptide biotin-Ttds-[…]

Where two headings read alike, the source gives them in different places.

Sequence of CDK9/CycT1 (P50750 whole entry): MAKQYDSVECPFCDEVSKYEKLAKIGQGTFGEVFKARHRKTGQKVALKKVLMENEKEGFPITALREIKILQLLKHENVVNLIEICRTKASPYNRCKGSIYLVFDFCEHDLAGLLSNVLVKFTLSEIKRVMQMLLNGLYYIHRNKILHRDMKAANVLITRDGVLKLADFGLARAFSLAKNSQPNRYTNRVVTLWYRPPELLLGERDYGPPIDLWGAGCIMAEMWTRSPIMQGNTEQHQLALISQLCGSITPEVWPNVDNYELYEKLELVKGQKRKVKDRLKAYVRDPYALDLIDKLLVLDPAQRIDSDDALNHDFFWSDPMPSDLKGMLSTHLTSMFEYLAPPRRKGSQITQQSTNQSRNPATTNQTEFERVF
Sequence of CDK9/CycT1 (O60563 whole entry partner): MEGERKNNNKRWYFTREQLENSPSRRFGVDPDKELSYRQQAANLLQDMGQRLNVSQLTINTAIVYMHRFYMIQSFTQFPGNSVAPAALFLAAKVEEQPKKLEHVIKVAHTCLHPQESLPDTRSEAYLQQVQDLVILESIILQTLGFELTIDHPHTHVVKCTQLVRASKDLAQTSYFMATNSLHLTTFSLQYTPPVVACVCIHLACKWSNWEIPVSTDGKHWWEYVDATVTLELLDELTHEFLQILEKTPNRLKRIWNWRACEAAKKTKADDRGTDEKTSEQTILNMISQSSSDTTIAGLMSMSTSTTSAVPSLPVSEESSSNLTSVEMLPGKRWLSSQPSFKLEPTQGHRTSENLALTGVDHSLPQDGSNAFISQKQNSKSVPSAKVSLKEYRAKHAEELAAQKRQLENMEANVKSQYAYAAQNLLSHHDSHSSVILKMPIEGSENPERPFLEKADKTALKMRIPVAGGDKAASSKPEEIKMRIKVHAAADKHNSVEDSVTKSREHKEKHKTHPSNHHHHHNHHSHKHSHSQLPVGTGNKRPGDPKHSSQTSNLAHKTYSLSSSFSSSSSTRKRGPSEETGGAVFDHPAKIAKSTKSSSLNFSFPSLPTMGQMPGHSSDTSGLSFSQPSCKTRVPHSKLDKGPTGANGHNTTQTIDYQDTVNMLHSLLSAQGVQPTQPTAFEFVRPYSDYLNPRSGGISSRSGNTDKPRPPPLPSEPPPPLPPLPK

For the molecule `CCS(=N)(=O)Cc1cccc(Nc2ncnc(-c3ccc(F)cc3OC)n2)c1` (racemic) [Example 108, (rac)-N-{3-[(S-ethylsulfonimidoyl)methyl]phenyl}-4-(4-fluoro-2-methoxyphenyl)-1,3,5-triazin-2-amine], the IC50 is 1000 nM in assay [1] (Homo sapiens, HeLa); 8 nM against CDK9/CycT1; 1000 nM at CDK2/CycE.
As for `CS(=N)(=O)Cc1cccc(Nc2ncnc(-c3ccc(F)cc3OCCC3CC3)n2)c1` (racemic) [Example 76, (rac)-4-[2-(2-Cyclopropylethoxy)-4-fluorophenyl]-N-{3-[(S-methylsulfonimidoyl)methyl]phenyl}-1,3,5-triazin-2-amine], the IC50 was determined as 1100 nM in assay [1] (Homo sapiens, HeLa); 30 nM against CDK9/CycT1; 3200 nM against CDK2/CycE.
For `COc1cc(F)ccc1-c1ncnc(Nc2ccc(Cl)c(CS(C)(=N)=O)c2)n1` (single isomer, unassigned) [Example 59.b, N-{4-Chloro-3-[(S-methylsulfonimidoyl)methyl]phenyl}-4-(4-fluoro-2-methoxyphenyl)-1,3,5-triazin-2-amine], the values for the IC50 (in assay [1]; on CDK9/CycT1; against CDK2/CycE) were 1100 nM, 33 nM and 1800 nM, respectively.
`CS(=N)(=O)Cc1cccc(Nc2ncnc(-c3ccc(F)cc3OCC(F)F)n2)c1` (racemic) [Example 95, (rac)-4-[2-(2,2-Difluoroethoxy)-4-fluorophenyl]-N-{3-[(S-methylsulfonimidoyl)methyl]phenyl}-1,3,5-triazin-2-amine]: the IC50 stood at 1100 nM in assay [1] (Homo sapiens, HeLa); 21 nM on CDK9/CycT1; 1800 nM at CDK2/CycE.
On to `CS(=N)(=O)Cc1cccc(Nc2ncnc(-c3ccc(F)cc3OCc3ccc(F)c(Cl)c3)n2)c1` (racemic) [Example 97, (rac)-4-{2-[(3-Chloro-4-fluorobenzyl)oxy]-4-fluorophenyl}-N-{3-[(S-methylsulfonimidoyl)methyl]phenyl}-1,3,5-triazin-2-amine], for which the IC50 in assay [1] (Homo sapiens, HeLa) came to 940 nM; at CDK9/CycT1 it was 3 nM; against CDK2/CycE, 200 nM.
Taken in the same sequence, the figures for `COc1cc(F)ccc1-c1ncnc(Nc2ccc(Cl)c(CS(C)(=N)=O)c2)n1` (racemic) [Example 59, (rac)-N-{4-Chloro-3-[(S-methylsulfonimidoyl)methyl]phenyl}-4-(4-fluoro-2-methoxyphenyl)-1,3,5-triazin-2-amine] were 860 nM, 26 nM and 1400 nM.
`Cc1cc(COc2cc(F)ccc2-c2ncnc(Nc3cccc(CS(C)(=N)=O)c3)n2)ccc1F` (racemic) [Example 96, (rac)-4-{4-Fluoro-2-[(4-fluoro-3-methylbenzyl)oxy]phenyl}-N-{3-[(S-methylsulfonimidoyl)methyl]phenyl}-1,3,5-triazin-2-amine]: the IC50 in assay [1] (Homo sapiens, HeLa) stood at 1000 nM; against CDK9/CycT1, 3 nM; at CDK2/CycE, 350 nM.
The like results for `CS(=N)(=O)Cc1cccc(Nc2ncnc(-c3ccc(F)cc3OCc3ccc(F)c(F)c3)n2)c1` (racemic) [Example 80, (rac)-4-{2-[(3,4-Difluorobenzyl)oxy]-4-fluorophenyl}-N-{3-[(S-methylsulfonimidoyl)methyl]phenyl}-1,3,5-triazin-2-amine] were, in that order, 730 nM, 13 nM and 1000 nM.
The like results for `CS(=N)(=O)Cc1cccc(Nc2ncnc(-c3ccc(F)cc3OCc3cccnc3)n2)c1` (racemic) [Example 66, (rac)-4-[4-Fluoro-2-(pyridin-3-ylmethoxy)phenyl]-N-{3-[(S-methylsulfonimidoyl)methyl]phenyl}-1,3,5-triazin-2-amine] were, in that order, 1700 nM, 24 nM and 1600 nM.
The like results for `COc1cc(F)ccc1-c1ncnc(Nc2cccc(CS(C)(=O)=NS(C)(=O)=O)c2)n1` (racemic) [Example 44, (rac)-N-[(3-{[4-(4-Fluoro-2-methoxyphenyl)-1,3,5-triazin-2-yl]amino}benzyl)(methyl)oxido-λ^6-sulfanylidene]methanesulfonamide] were, in that order, 1000 nM, 20 nM and 1800 nM.
Turning to `CS(=N)(=O)Cc1cccc(Nc2ncnc(-c3ccc(F)cc3OCc3cncs3)n2)c1` (racemic) [Example 81, (rac)-4-[4-Fluoro-2-(1,3-thiazol-5-ylmethoxy)phenyl]-N-{3-[(S-methylsulfonimidoyl)methyl]phenyl}-1,3,5-triazin-2-amine], the IC50 amounted to 860 nM in assay [1] (Homo sapiens, HeLa); 23 nM against CDK9/CycT1; 1500 nM against CDK2/CycE.
As for `CS(=N)(=O)Cc1cccc(Nc2ncnc(-c3cccc4c3OCCC4)n2)c1` (racemic) [Example 30, (rac)-4-(3,4-Dihydro-2H-chromen-8-yl)-N-{3-[(S-methylsulfonimidoyl)methyl]phenyl}-1,3,5-triazin-2-amine], the IC50 in assay [1] (Homo sapiens, HeLa) was determined as 1200 nM; against CDK2/CycE, 940 nM.
Turning to `COc1cc(F)ccc1-c1ncnc(Nc2ccc(Cl)c(CS(C)(=N)=O)c2)n1` (single isomer, unassigned) [Example 59.a, N-{4-Chloro-3-[(S-methylsulfonimidoyl)methyl]phenyl}-4-(4-fluoro-2-methoxyphenyl)-1,3,5-triazin-2-amine], the IC50 in assay [1] (Homo sapiens, HeLa) was determined as 1100 nM; against CDK9/CycT1, 25 nM; against CDK2/CycE, 2900 nM.
Taken in the same sequence, the figures for `CS(=N)(=O)Cc1cccc(Nc2ncnc(-c3ccc(F)cc3OCc3ccc(C(F)(F)F)cc3)n2)c1` (racemic) [Example 86, (rac)-4-(4-Fluoro-2-{[4-(trifluoromethyl)benzyl]oxy}phenyl)-N-{3-[(S-methylsulfonimidoyl)methyl]phenyl}-1,3,5-triazin-2-amine] were 1100 nM, 8 nM and 1400 nM.
The like results for `CS(=N)(=O)Cc1cccc(Nc2ncnc(-c3ccc(F)cc3OCCCC(F)(F)F)n2)c1` (racemic) [Example 100, (rac)-4-[4-Fluoro-2-(4,4,4-trifluorobutoxy)phenyl]-N-{3-[(S-methylsulfonimidoyl)methyl]phenyl}-1,3,5-triazin-2-amine] were, in that order, 920 nM, 6 nM and 1300 nM.
With `CN=S(C)(=O)Cc1cccc(Nc2ncnc(-c3ccc(F)cc3OC)n2)c1` (racemic) [Example 41, (rac)-N-{3-[(N,S-Dimethylsulfonimidoyl)methyl]phenyl}-4-(4-fluoro-2-methoxyphenyl)-1,3,5-triazin-2-amine], the values for the IC50 on CDK9/CycT1 and at CDK2/CycE were 36 nM and 2600 nM, respectively.
In the case of `CC(Oc1cc(F)ccc1-c1ncnc(Nc2cccc(CS(C)(=N)=O)c2)n1)c1ccc(F)cc1` (stereo not drawn) [Example 69, 4-{4-Fluoro-2-[1-(4-fluorophenyl)ethoxy]phenyl}-N-{3-[(S-methylsulfonimidoyl)methyl]phenyl}-1,3,5-triazin-2-amine], the IC50 was 22 nM against CDK9/CycT1 and 3500 nM against CDK2/CycE.
On to `COc1cc(Cl)ccc1-c1ncnc(Nc2cccc(CS(C)(=N)=O)c2)n1` (single isomer, unassigned) [Example 14, 4-(4-Chloro-2-methoxyphenyl)-N-{3-[(S-methylsulfonimidoyl)methyl]phenyl}-1,3,5-triazin-2-amine], for which the IC50 against CDK9/CycT1 is 160 nM; against CDK2/CycE, 13000 nM.
Taken in the same sequence, the figures for `CCOC(=O)N=S(C)(=O)Cc1cccc(Nc2ncnc(-c3cccc4c3OC(F)(F)O4)n2)c1` (racemic) [Example 18, (rac)-Ethyl [(3-{[4-(2,2-difluoro-1,3-benzodioxol-4-yl)-1,3,5-triazin-2-yl]amino}benzyl)(methyl)oxido-λ^6-sulfanylidene]carbamate] were 33 nM and 3900 nM.
The like results for `COc1cc(Cl)ccc1-c1ncnc(Nc2cccc(CS(C)(=N)=O)c2)n1` (racemic) [Example 12, (rac) 4-(4-Chloro-2-methoxyphenyl)-N-{3-[(S-methylsulfonimidoyl)methyl]phenyl}-1,3,5-triazin-2-amine] were, in that order, 74 nM and 6800 nM.
